Article PMC9945177, “Nature-Derived Epoxy Resin Monomers with Reduced Sensitizing Capacity—Isosorbide-Based Bis-Epoxides” (Chemical Research in Toxicology, 2023)

Key:
[1] = skin permeability, static Franz diffusion cells; assay type: in vitro ADME, pig
Procedure: For the permeability experiments, ultra-performance liquid chromatography-electrospray ionization tandem mass spectroscopy (UPLC)-ESI-MS/MS analysis was carried out using a Xevo TQ-S micro triple quadrupole mass spectrometer equipped with an electrospray interface and coupled to an Acquity UPLC H-Class Plus system from Waters. Separation was achieved on an ACE Excel C18-PFP column (75 × 2.1 mm, 1.7 μm) from Advanced Chromatography Technologies Ltd. (Aberdeen, Scotland). Mobile phase A consisted of 0.1% formic acid and 5% acetonitrile in water, whereas mobile phase B consisted of 0.1% formic acid and 5% water in acetonitrile. The gradient program used was as follows: 20% B (0–2 min), 20–80% B (2–9 min), 80–95% B (9–9.1 min), 95% B (9.1–12 min), 95–20% B (12–12.1 min), 20% B (12.1–15 min). The flow rate was set to 0.3 mL/min and the injection volume was 2 μL. Analysis was performed in positive ionization mode using a Multiple Reaction Monitoring (MRM) method. The optimal parameters were capillary voltage 1.5 (kV), desolvation temperature 650 °C, desolvation gas 850 L/h, and cone 100 L/h.
The Franz diffusion cell experiment was based on the OECD Test Guidelines.[35] Static Franz diffusion cells equipped with pig ex vivo epidermis were used to assess the permeability of isosorbide bis-epoxides 2 and 3. Freshly cut pig ears were received frozen and stored at −20 °C until used for permeability assessment. One day before the experiment, the ears were transferred at +4 °C and allowed to thaw. The ears were then washed, shaved, and carefully cut with a Watson Dermatome skin graft knife to obtain 0.1 mm pieces of the epidermis layer. The integrity of the skin (transparent and intact) was determined by ocular inspection. Thereafter, the epidermis layer was cut and positioned between the donor and receptor compartment of each Franz cell. The receptor compartments were filled with 5 mL of ethanol/PBS (1:1) and equipped with a small magnetic stir bar to ensure mixing while maintaining a constant temperature of the circulating water at 37 °C. To equilibrate the skin, the upper chamber was filled with 0.5 mL of ethanol/PBS (1:1) which was later removed and replaced with the donor solution (50 μL) containing either 2 or 3 (0.1 mg/mL) or DGEBA (0.1 mg/mL) used as a positive control. A procedural blank containing only 50 μL of ethanol/PBS (1:1) in the donor compartment was also included in the experimental setup. Samples of 100 μL were collected after 0–2 min, 1, 2, 3, 4, 5, and 6 h. At each timepoint, a sample aliquot was removed and 100 μL of ethanol/PBS (1:1) was added to the receptor compartment to keep the volume constant. After 6 h, the skin from each Franz cell was extracted overnight in 5 mL of ethanol/PBS (1,1). Triplicate experiments were performed for each compound. The obtained samples were analyzed with UPLC-ESI-MS/MS (see Figure S2 for parameters) and quantification was based on external calibration curves. The limit of quantification (LOQ) was determined by the analysis of the analyte at low concentration and was calculated as 10 times the signal-to-noise ratio.

[2] = design: method as in Ponting et al. 26; details: polymer, TGA under nitrogen; ref Ponting et al. 26; cited from earlier work
Female CBA/Ca mice = details: cited from earlier work
guinea pig = details: cited from earlier work
[3] = Extract: skin extracted overnight after 6 h

CC(C)(c1ccc(OCC2CO2)cc1)c1ccc(OCC2CO2)cc1 (stereo not drawn) [DGEBA, diglycidyl ether of bisphenol A, reference compound]
permeation of epidermis ([1]; 6 h experiment, donor 0.1 mg/mL): observed | Average (µM) [1, 3]: 0.206 µM | Average (µg/ml) [1, 3]: 0.0700 µg/mL | Replicate 1 [1, 3]: 0.0658 µg/mL | Replicate 2 (µg/ml) [1, 3]: < LOQ | Replicate 3 [1, 3]: 0.0742 µg/mL | recovery at 6 h, 0.1 mg/mL ([1]; pig, w/w %, sum of receptor compartment after 6 h and overnight skin extraction): 35% | Average (µM) ([1]; receptor fluid, timepoint 0 h): 0 µM | Average (µg/ml) ([1]; receptor fluid, timepoint 0 h): 0 µg/mL | Replicate 1 (µg/ml) ([1]; receptor fluid, timepoint 0 h): < LOQ | Replicate 2 (µg/ml) ([1]; receptor fluid, timepoint 0 h): < LOQ | Replicate 3 (µg/ml) ([1]; receptor fluid, timepoint 0 h): < LOQ | Average (µM) ([1]; receptor fluid, timepoint 1 h): 0 µM | Average (µg/ml) ([1]; receptor fluid, timepoint 1 h): 0 µg/mL | Replicate 1 (µg/ml) ([1]; receptor fluid, timepoint 1 h): < LOQ | Replicate 2 (µg/ml) ([1]; receptor fluid, timepoint 1 h): < LOQ | Replicate 3 (µg/ml) ([1]; receptor fluid, timepoint 1 h): < LOQ | Average (µM) ([1]; receptor fluid, timepoint 2 h): 0.595 µM | Average (µg/ml) ([1]; receptor fluid, timepoint 2 h): 0.203 µg/mL | Replicate 1 ([1]; receptor fluid, timepoint 2 h): 0.315 µg/mL | Replicate 2 ([1]; receptor fluid, timepoint 2 h): 0.184 µg/mL | Replicate 3 ([1]; receptor fluid, timepoint 2 h): 0.108 µg/mL | Average (µM) ([1]; receptor fluid, timepoint 3 h): 0.818 µM | Average (µg/ml) ([1]; receptor fluid, timepoint 3 h): 0.278 µg/mL | Replicate 1 ([1]; receptor fluid, timepoint 3 h): 0.419 µg/mL | Replicate 2 ([1]; receptor fluid, timepoint 3 h): 0.239 µg/mL | Replicate 3 ([1]; receptor fluid, timepoint 3 h): 0.177 µg/mL | Average (µM) ([1]; receptor fluid, timepoint 4 h): 0.868 µM | Average (µg/ml) ([1]; receptor fluid, timepoint 4 h): 0.296 µg/mL | Replicate 1 ([1]; receptor fluid, timepoint 4 h): 0.456 µg/mL | Replicate 2 ([1]; receptor fluid, timepoint 4 h): 0.229 µg/mL | Replicate 3 ([1]; receptor fluid, timepoint 4 h): 0.202 µg/mL | Average (µM) ([1]; receptor fluid, timepoint 5 h): 0.851 µM | Average (µg/ml) ([1]; receptor fluid, timepoint 5 h): 0.290 µg/mL | Replicate 1 ([1]; receptor fluid, timepoint 5 h): 0.436 µg/mL | Replicate 2 ([1]; receptor fluid, timepoint 5 h): 0.237 µg/mL | Replicate 3 ([1]; receptor fluid, timepoint 5 h): 0.196 µg/mL | Average (µM) ([1]; receptor fluid, timepoint 6 h): 0.817 µM | Average (µg/ml) ([1]; receptor fluid, timepoint 6 h): 0.278 µg/mL | Replicate 1 ([1]; receptor fluid, timepoint 6 h): 0.406 µg/mL | Replicate 2 ([1]; receptor fluid, timepoint 6 h): 0.218 µg/mL | Replicate 3 ([1]; receptor fluid, timepoint 6 h): 0.210 µg/mL | amount in receptor fluid after 6 h (%) ([1]; w/w %): 27.8 ± 9.0% | amount on/in skin (%) ([1]; w/w %, overnight skin extraction after 6 h): 7.0 ± 0.4% | recovery (%) ([1]; w/w %, sum of receptor compartment after 6 h and overnight skin extraction): 34.8 ± 9.4% | Ea (activation energy for the decomposition of the cured epoxy resins) [2]: 40.2 kcal/mol | IDT (initial decomposition temperature) [2]: 358 °C | Rmax (maximum weight loss rate) [2]: –2.17 %/°C | Tmax (temperature at the maximum rate of weight loss) [2]: 408 °C | EC3 (Female CBA/Ca mice): 0.036 M | skin sensitizer classification in guinea pig maximization test (guinea pig): strong
